In US20230357269A1 (LES LABORATOIRES SERVIER, priority 2020, published 2023):

Target: human recombinant LRRK2 protein (Homo sapiens (Human), UniProt Q5S007)
Assay: LRRK2 Kinase Activity Assay (ADP-Glo)
Assay type: biochemical
Conditions: LRRK2 wt; LRRKtide peptide and ATP substrates; 1h-incubation at 37° C.
Protocol: LRRK2 Kinase reactions were carried out in 384-well white polystyrene plates in a final volume of 6 μl using ADP-Glo™ Kinase Assay kit (Promega Corp.). Compound and substrates (LRRKtide peptide and ATP) in assay buffer were first dispensed in wells. Kinase reaction was then started by the addition of human recombinant LRRK2 protein. After 1h-incubation at 37° C., the enzymatic reaction was stopped by the addition of 6 μl of ADP-Glo Reagent-1 and an additional 40-minutes incubation at 23° C. (residual ATP depletion). A final 30-minutes incubation after 12 μL reagent-2 addition (ADP to ATP conversion and luciferin/luciferase reaction) was performed before luminescent signal acquisition (EnVision™ multimode plate reader-PerkinElmer, Inc.). Data from 10 individual concentrations of tested compounds (N=2) were fitted (XLfit™-ID Business Solutions Ltd) to deliver IC50s (compound concentration leading to 50% inhibition of reference enzymatic activity).
The compounds are dissolved to 5 mM in DMSO. When needed, solutions are sonicated in a bath sonicator.
Table 2 provides the IC50 values of the compounds according to the invention, obtained using the above-mentioned kinase assay. Activities are represented as +++, ++ and +, having the following meanings: • +++ means IC50<10 nM • ++ means 10 nM≤IC50<100 nM • + means 100 nM≤IC50<1 μM.

human recombinant LRRK2 protein, sequence (Q5S007 whole entry): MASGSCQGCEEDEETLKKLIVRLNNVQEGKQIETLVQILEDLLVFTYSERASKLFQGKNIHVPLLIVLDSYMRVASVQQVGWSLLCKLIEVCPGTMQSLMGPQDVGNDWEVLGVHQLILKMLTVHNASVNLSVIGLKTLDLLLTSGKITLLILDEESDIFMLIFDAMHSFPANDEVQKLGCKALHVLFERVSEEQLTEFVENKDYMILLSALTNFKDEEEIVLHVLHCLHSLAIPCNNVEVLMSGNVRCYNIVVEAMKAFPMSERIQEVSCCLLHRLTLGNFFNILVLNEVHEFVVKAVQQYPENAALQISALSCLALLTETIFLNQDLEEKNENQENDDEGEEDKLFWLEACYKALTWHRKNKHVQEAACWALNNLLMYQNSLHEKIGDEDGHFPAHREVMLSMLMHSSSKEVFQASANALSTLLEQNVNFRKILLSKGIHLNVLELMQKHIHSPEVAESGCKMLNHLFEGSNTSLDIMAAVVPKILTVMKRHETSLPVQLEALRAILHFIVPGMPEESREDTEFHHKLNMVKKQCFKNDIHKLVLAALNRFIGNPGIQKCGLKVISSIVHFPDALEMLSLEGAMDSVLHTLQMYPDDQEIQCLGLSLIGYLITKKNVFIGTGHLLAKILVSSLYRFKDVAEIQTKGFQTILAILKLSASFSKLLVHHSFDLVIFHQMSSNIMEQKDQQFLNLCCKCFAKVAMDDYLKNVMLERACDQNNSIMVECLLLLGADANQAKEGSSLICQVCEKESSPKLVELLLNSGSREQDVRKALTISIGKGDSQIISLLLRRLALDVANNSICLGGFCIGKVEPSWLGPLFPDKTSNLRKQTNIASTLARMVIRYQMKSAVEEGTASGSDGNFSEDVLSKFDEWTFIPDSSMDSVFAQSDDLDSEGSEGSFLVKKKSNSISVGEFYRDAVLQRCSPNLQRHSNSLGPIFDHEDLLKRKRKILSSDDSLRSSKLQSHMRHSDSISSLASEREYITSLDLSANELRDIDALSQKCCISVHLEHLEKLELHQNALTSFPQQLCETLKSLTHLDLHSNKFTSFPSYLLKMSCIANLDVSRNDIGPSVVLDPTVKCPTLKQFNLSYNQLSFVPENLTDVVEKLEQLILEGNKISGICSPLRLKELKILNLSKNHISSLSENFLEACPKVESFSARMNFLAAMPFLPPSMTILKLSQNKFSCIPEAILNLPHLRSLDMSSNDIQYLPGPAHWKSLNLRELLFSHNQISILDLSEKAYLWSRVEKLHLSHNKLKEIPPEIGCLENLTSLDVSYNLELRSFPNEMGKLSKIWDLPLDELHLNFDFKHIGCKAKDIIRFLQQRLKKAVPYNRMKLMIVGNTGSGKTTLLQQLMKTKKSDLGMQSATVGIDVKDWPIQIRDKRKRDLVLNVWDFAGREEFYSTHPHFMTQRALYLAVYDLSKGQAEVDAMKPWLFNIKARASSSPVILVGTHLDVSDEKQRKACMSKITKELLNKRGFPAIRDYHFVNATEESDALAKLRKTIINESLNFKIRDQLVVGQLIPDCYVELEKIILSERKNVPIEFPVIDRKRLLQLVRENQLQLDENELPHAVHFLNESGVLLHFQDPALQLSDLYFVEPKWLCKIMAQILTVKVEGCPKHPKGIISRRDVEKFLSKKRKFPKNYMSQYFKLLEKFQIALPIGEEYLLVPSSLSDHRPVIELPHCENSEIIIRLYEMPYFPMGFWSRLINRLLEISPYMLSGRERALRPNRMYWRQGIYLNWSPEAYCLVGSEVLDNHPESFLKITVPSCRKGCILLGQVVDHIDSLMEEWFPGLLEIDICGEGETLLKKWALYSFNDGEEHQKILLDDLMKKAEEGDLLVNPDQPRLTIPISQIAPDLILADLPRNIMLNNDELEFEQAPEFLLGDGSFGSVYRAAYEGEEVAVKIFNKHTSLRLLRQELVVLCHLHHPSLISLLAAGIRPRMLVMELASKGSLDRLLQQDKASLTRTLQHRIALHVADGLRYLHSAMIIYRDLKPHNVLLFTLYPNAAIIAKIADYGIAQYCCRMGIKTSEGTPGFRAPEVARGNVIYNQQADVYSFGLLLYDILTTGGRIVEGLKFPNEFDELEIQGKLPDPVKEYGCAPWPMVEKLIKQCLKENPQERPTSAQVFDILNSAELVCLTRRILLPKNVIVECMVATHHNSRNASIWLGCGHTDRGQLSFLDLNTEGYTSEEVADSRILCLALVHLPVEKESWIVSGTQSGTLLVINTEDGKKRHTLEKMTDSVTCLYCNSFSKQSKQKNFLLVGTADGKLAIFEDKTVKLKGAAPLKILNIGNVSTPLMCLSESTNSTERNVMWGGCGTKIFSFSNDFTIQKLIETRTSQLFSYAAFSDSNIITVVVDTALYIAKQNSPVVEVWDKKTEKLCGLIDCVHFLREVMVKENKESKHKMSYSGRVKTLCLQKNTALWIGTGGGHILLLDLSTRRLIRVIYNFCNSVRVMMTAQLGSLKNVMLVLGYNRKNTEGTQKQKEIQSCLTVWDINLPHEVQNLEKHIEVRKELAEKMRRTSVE

| Compound | IC50 |
| --- | --- |
| O=C1NCCCOc2ccc3[nH]nc(c3c2)-c2cc(cc(C3=CCN(C4COC4)CC3)c2)CO1 [Example 57, 4-[1-(oxetan-3-yl)-1,2,3,6-tetrahydropyridin-4-yl]-8,14-dioxa-10,19,20-triazatetracyclo[13.5.2.1^2,6.0^18,21]tricosa-1(20),2,4,6(23),15,17,21-heptaen-9-one] | < 10 nM |
| O=C1NC[C@H](F)COc2ccc3[nH]nc(c3c2)-c2cnn(n2)CCO1 [Example 173, (12S)-12-fluoro-8,14-dioxa-4,5,10,19,20,23-hexaazatetracyclo[13.5.2.1^2,5.0^18,21]tricosa-1(20),2(23),3,15,17,21-hexaen-9-one] | < 10 nM |
| C[C@@H]1CCNC(=O)OCCC2=NC=C(S2)c2n[nH]c3ccc(cc23)O1 [Example 160, (13R)-13-methyl-8,14-dioxa-23-thia-4,10,19,20-tetraazatetracyclo[13.5.2.1^2,5.0^18,21]tricosa-1(20),2,4,15,17,21-hexaen-9-one] | < 10 nM |
| O=C1NCCCOc2ccc3[nH]nc(c3c2)-c2csc(n2)CO1 [Example 147, 7,13-dioxa-4-thia-9,18,19,22-tetraazatetracyclo[12.5.2.1^2,5.0^17,20]docosa-1(19),2,5(22),14(21),15,17(20)-hexaen-8-one] | < 10 nM |
| CC1CNC(=O)OCCn2cc(cn2)-c2n[nH]c3ccc(cc23)OC1 (centres unmarked) [Example 93, 12-methyl-8,14-dioxa-4,5,10,19,20-pentaazatetracyclo[13.5.2.1^2,5.0^18,21]tricosa-1(20),2(23),3,15(22),16,18(21)-hexaen-9-one] | < 10 nM |
| C[C@@H]1CCNC(=O)O[C@H](C)c2cncc(n2)-c2n[nH]c3ccc(cc23)O1 [Example 155, (7R,13R)-7,13-dimethyl-8,14-dioxa-4,10,19,20,23-pentaazatetracyclo[13.5. 2.1^2,6.0^18,21]tricosa-1(20),2(23),3,5,15(22),16,18(21)-heptaen-9-one] | < 10 nM |
| O=C1NCCCOc2ccc3[nH]nc(c3c2)-c2cc(cc(N3CCC(N4CCCC4)CC3)c2)CO1 [Example 34, 4-[4-(pyrrolidin-1-yl)piperidin-1-yl]-8,14-dioxa-10,19,20-triazatetracyclo[13.5.2.1^2,6.0^18,21]tricosa-1(20),2,4,6(23),15,17,21-heptaen-9-one] | < 10 nM |
| COCCc1cc2cc(c1)-c1n[nH]c3ccc(cc13)OCCCNC(=O)OC2 [Example 67, 4-(2-methoxyethyl)-8,14-dioxa-10,19,20-triazatetracyclo[13.5.2.1^2,6.0^18,21]tricosa-1(20),2(23),3,5,15(22),16,18(21)-heptaen-9-one] | < 10 nM |
| C[C@@H]1CCNC(=O)OCc2cccc(c2)-c2n[nH]c3cc(Cl)c(cc23)O1 [Example 138, (13R)-16-chloro-13-methyl-8,14-dioxa-10,19,20-triazatetracyclo[13.5.2.1^2,6.0^18,21]tricosa-1(20),2,4,6(23),15,17,21-heptaen-9-one] | < 10 nM |
| O=C1NCCCOc2ccc3[nH]nc(c3c2)-c2cc(no2)CCCO1 [Example 123, 3,9,15-trioxa-4,11,20,21-tetraazatetracyclo[14.5.2.1^2,5.0^19,22]tetracosa-1(21),2(24),4,16,18,22-hexaen-10-one] | < 10 nM |
| COCCN1CCN(c2cc3cc(c2)-c2n[nH]c4ccc(cc24)OCCCNC(=O)OC3)CC1 [Example 46, 4-[4-(2-methoxyethyl)piperazin-1-yl]-8,14-dioxa-10,19,20-triazatetracyclo[13.5.2.1^2,6.0^18,21]tricosa-1(20),2,4,6(23),15,17,21-heptaen-9-one] | < 10 nM |
| O=C1NCCCOc2ccc3[nH]nc(c3c2)-c2cnn(c2)C(C2CC2)CO1 (centres unmarked) [Example 103, 6-cyclopropyl-8,14-dioxa-4,5,10,19,20-pentaazatetracyclo[13.5.2.1^2,5.0^18,21]tricosa-1(20),2(23),3,15(22),16,18(21)-hexaen-9-one] | < 10 nM |
| COc1c(F)cc2cc1C(C)OC(=O)NCCCOc1ccc3[nH]nc-2c3c1 (centres unmarked) [Example 89, 4-fluoro-5-methoxy-7-methyl-8,14-dioxa-10,19,20-triazatetracyclo[13.5.2.1^2,6.0^18,21]tricosa-1(20),2(23),3,5,15(22),16,18(21)-heptaen-9-one] | 100 to 1000 nM |
| C[C@H]1CCNC(=O)OCc2cncc(n2)-c2n[nH]c3ccc(cc23)O1 [Example 156, (13S)-13-methyl-8,14-dioxa-4,10,19,20,23-pentaazatetracyclo[13.5.2. 1^2,6.0^18,21]tricosa-1(20),2(23),3,5,15(22),16,18(21)-heptaen-9-one] | < 10 nM |
| C[C@@H]1CCNC(=O)OCc2cccc(c2)-c2n[nH]c3cnc(cc23)O1 [Example 162, (13R)-13-methyl-8,14-dioxa-10,16,19,20-tetraazatetracyclo[13.5.2.1^2,6.0^18,21]tricosa-1(20),2(23),3,5,15(22),16,18(21)-heptaen-9-one] | < 10 nM |
| CC1OC(=O)NCC[C@@H](C)Oc2ccc3[nH]nc(c3c2)-c2ccnc1n2 (single isomer, unassigned) [Example 130, (7R,13R)- or (7S,13R)-7,13-dimethyl-8,14-dioxa-5,10,19,20,23-penta azatetracyclo[13.5.2.1^2,6.0^18,21]tricosa-1(20),2,4,6(23),15,17,21-heptaen-9-one] | 10 to 100 nM |

The remaining lines, values ahead:

| IC50 | Compound |
| --- | --- |
| < 10 nM | O=C1NCCCOc2ccc3[nH]nc(c3c2)-c2cccc(c2)CO1 [Example 5, 8,14-dioxa-10,19,20-triazatetracyclo[13.5.2.1^2,6.0^18,21]tricosa-1(20),2,4,6(23), 15,17,21-heptaen-9-one] |
| < 10 nM | CC1OC(=O)NCCCOc2ccc3[nH]nc(c3c2)-c2cncc1c2 (centres unmarked) [Example 107, 7-methyl-8,14-dioxa-4,10,19,20-tetraazatetracyclo[13.5.2.1^2,6.0^18,21]tricosa-1(20),2,4,6(23),15,17,21-heptaen-9-one] |
| < 10 nM | O=C1NCCCOc2ccc3[nH]nc(c3c2)-c2cc(cc(N3CCCC3)c2)CO1 [Example 12, 4-(pyrrolidin-1-yl)-8,14-dioxa-10,19,20-triazatetracyclo[13.5.2.1^2,6.0^18,21]tricosa-1(20),2,4,6(23),15,17,21-heptaen-9-one] |
| 10 to 100 nM | C[C@@H]1OC(=O)NCCCOc2ccc3[nH]nc(c3c2)-c2cccc1c2 [Example 65, (7S)-7-methyl-8,14-dioxa-10,19,20-triazatetracyclo[13.5.2.1^2,6.0^18,21]tricosa-1(20),2(23),3,5,15(22),16,18(21)-heptaen-9-one] |
| < 10 nM | O=C1NC[C@H](F)COc2ccc3[nH]nc(c3c2)-c2cccc(c2)CO1 [Example 169, (12S)-12-fluoro-8,14-dioxa-10,19,20-triazatetracyclo[13.5.2.1^2,6.0^18,21]tricosa-1(20),2(23),3,5,15(22),16,18(21)-heptaen-9-one] |
| < 10 nM | O=C1NCCCOc2ccc3[nH]nc(c3c2)-c2cc(cc(N3CCC(F)(F)C3)c2)CO1 [Example 21, 4-(3,3-difluoropyrrolidin-1-yl)-8,14-dioxa-10,19,20-triazatetracyclo[13.5.2.1^2,6.0^18,21]tricosa-1(20),2,4,6(23),15,17,21-heptaen-9-one] |
| < 10 nM | O=C1OC2CN1CCCOc1ccc3[nH]nc(c3c1)-c1cccc2c1 (centres unmarked) [Example 91, 8,14-dioxa-10,19,20-triazapentacyclo[13.5.2.1^2,6.1^7,10.0^18,21]tetracosa-1(20),2(24),3,5,15(22),16,18(21)-heptaen-9-one] |
| < 10 nM | C[C@H]1CCNC(=O)OCc2cccc(c2)-c2n[nH]c3ccc(cc23)O1 [Example 62, (13S)-13-methyl-8,14-dioxa-10,19,20-triazatetracyclo[13.5.2.1^2,6.0^18,21]tricosa-1(20),2(23),3,5,15(22),16,18(21)-heptaen-9-one] |
| < 10 nM | O=C1OC2CN1CCCOc1ccc3[nH]nc(c3c1)-c1cc(F)cc2c1 (centres unmarked) [Example 60, 4-fluoro-8,14-dioxa-10,19,20-triazapentacyclo[13.5.2.1^2,6.1^7,10.0^18,21]tetracosa-1(20),2(24),3,5,15(22),16,18(21)-heptaen-9-one] |
| < 10 nM | O=C1NCCCOc2ccc3[nH]nc(c3c2)-c2cc(F)c(F)c(c2)CO1 [Example 29, 4,5-difluoro-8,14-dioxa-10,19,20-triazatetracyclo[13.5.2.1^2,6.0^18,21]tricosa-1(20),2,4,6(23),15,17,21-heptaen-9-one] |
| 10 to 100 nM | CC(C)N1CCCOc2ccc3[nH]nc(c3c2)-c2cncc(c2)COC1=O [Example 6, 10-(propan-2-yl)-8,14-dioxa-4,10,19,20-tetraazatetracyclo[13.5.2.1^2,6.0^18,21]tricosa-1(20),2,4,6(23),15,17,21-heptaen-9-one] |
| < 10 nM | O=C1NC[C@@H](F)COc2ccc3[nH]nc(c3c2)-c2cccc(c2)CO1 [Example 168, (12R)-12-fluoro-8,14-dioxa-10,19,20-triazatetracyclo[13.5.2.1^2,6.0^8211]tricosa-1(20),2(23),3,5,15(22),16,18(21)-heptaen-9-one] |
| 10 to 100 nM | CCC1OC(=O)NCCCOc2ccc3[nH]nc(c3c2)-c2cccc1c2 (centres unmarked) [Example 104, 7-ethyl-8,14-dioxa-10,19,20-triazatetracyclo[13.5.2.1^2,6.0^18,21]tricosa-1(20),2,4,6(23),15,17,21-heptaen-9-one] |
